Data as given in US7667044B2, “Compounds for the treatment of neurological disorders” (Probiodrug AG, priority 2003, dated 2010).

Key:
human glial U-343 cells = test: IL-6 ELISA, basal secretion of IL-6 into conditioned medium; type: cell-based; settings: inhibitor 20 μM, 24 hours, serum-free medium, untreated = 100%, read-out: Extracellular IL-6 concentration, % of untreated cells
Protocol: To analyze basal secretion of IL-6, human glial U-343 cells were cultured in 6 well plates (1.5×10^6 cells/well, Greiner) and treated with specific PEP inhibitors as indicated (20 μM each) for 24 hours in serum-free D-MEM medium (invitrogen). Aliquots of 40 μl conditioned medium were used to quantify the amount of secreted IL-6 by an human-specific IL-6 ELISA (Biosource) following the manufacturer's instructions. All data were obtained in quadruplicate. For the calculation of the IL-6 concentration in the cell culture medium after PEP-inhibitor treatment, the basal IL-6 concentration of the cell culture medium of untreated cell samples was set to 100%. The results of the measurement of the IL-6 concentration with PEP-inhibitor treated cells are presented as % of the untreated cell samples.

[1] = biological target: T1, Recombinant human prolyl oligopeptidase (Homo sapiens, UniProt P48147); test: Determination of IC50- and Ki-values of PEP-inhibitors, chromogenic substrate Cbz-Gly-L-Pro-pNA; type: biochemical; settings: for Ki: 4 substrate and 7 inhibitor concentrations, competitive inhibition fit, pH 7.6, 30° C.; for IC50: substrate 0.15 mM Cbz-Gly-L-Pro-pNA, HEPES buffer pH 7.6, 30° C.
T1 construct: made in house; host or cells: E. coli
T1 sequence (P48147 1-710): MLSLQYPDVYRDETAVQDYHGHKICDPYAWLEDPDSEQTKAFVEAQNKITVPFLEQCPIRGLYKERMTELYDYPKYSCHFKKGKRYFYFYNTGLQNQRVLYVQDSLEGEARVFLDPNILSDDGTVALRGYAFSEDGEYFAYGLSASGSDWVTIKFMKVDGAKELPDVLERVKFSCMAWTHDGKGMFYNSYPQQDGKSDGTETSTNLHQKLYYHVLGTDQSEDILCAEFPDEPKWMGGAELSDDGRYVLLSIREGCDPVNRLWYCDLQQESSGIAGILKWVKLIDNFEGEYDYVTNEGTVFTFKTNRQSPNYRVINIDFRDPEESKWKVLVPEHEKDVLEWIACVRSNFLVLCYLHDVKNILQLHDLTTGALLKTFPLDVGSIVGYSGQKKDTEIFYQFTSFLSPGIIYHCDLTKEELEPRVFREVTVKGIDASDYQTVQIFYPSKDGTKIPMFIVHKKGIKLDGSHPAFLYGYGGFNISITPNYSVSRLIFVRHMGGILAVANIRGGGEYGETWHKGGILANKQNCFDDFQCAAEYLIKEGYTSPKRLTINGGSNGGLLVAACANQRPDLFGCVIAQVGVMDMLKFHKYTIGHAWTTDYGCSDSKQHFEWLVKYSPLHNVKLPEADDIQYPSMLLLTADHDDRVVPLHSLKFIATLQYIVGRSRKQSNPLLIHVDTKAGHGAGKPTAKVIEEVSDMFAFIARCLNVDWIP
Protocol: Recombinant human prolyl oligopeptidase was used for measurement. Recombinant expression was performed in E. coli under standard conditions as described elsewhere in the state of the art.
For activity measurements the chromogenic substrate Cbz-Gly-L-Pro-pNA was used in HEPES buffer pH 7.6 containing 50 mM HEPES, 200 mM NaCl, 1 mM EDTA, 1 mM DTT, 0.006% Brij35. Measurements were carried out at 30° C. Release of pNA were monitored continuously at 405 nm.
IC50 values were calculated using non-linear regression to a 4-parameter equation (Prism 4.0, GraphPad).
Calculations were performed by multiple non-linear regression analysis to the equation for competitive inhibition using GraFit 5.0 Software (Erithacus Software).

[2] = system: human neuroblastoma SH-SY5Y cells; test: β-Amyloid ELISA, secreted β-amyloid peptides in conditioned medium; type: cell-based; settings: Aβ 1-42 (FIG. 2), inhibitor 20 μM, 24 hours, untreated = 100%, read-out: Extracellular Aβ-concentration, % of control
Protocol: The human glioma cell line, U-343 and the human neuroblastoma cell line, SH-SY5Y were maintained in Dulbecco's modified Eagle's medium (DMEM) containing 10% fetal bovine serum (Gibco BRL, Karlsruhe, Germany) and incubated at 37° C. in a 5% CO2 atmosphere. Culture media contained in general 60 μg/ml gentamycin (Gibco BRL, Karlsruhe, Germany).
To quantify intracellular and extracellular concentrations of β-amyloid peptides, 1-40 and 142, U-343 and SH-SY5Y cells were cultured in 6 well plates (1.5×10^6 cells/well) and treated with specific PEP inhibitors (20 μM each) for 24 hours. For quantitation of secreted β-amyloid peptides the conditioned medium was collected and concentrated by lyophylisation. Likewise, after determination of the cell numbers/well (casy cell counter I, Schärfe System, Reutlingen, Germany), cells were lyzed with cell extraction buffer (Biosource, Solingen, Germany) according to the manufacturer's protocol. The protein concentration was determined by the method of Bradford (1976). Aliquots of 100 μl were used to quantify β-amyloid peptides 1-40 and 1-42 in quadruplicate by ELISA, (IBL, Hamburg, Germany) following the manufacturer's instructions. All obtained intracellular and extracellular concentrations were normalized to cell numbers and protein concentration, respectively.
For the calculation of the concentration of β-amyloid peptides 1-40 and 1-42 in the cell culture medium after PEP-inhibitor treatment, the basal concentration of β-amyloid peptides 1-40 and 1-42 in the cell culture medium of untreated cell samples was set to 100%. The results of the measurement of the concentration of β-amyloid peptides 1-40 and 1-42 with PEP-inhibitor treated cells are presented as % of the untreated cell samples.

Row | SMILES | Ki [1] | IC50 [1] | activity at 20 µM (human glial U-343 cells) | activity at 20 µM [2]
1 | C[C@H](NC(=O)[C@@H](Cc1ccccc1)NC(=O)OCc1ccccc1)C(=O)c1nc2ccccc2s1 [Example 3, 2-[Cbz-L-Phe-L-Ala]Benzothiazole] |  | 1400 nM | 35.2% | 546%
2 | O=C(N[C@@H](Cc1ccccc1)C(=O)N1CCC[C@H]1C(=O)c1nccs1)OCc1ccccc1 [Example 4, 2-[Cbz-L-Phe-L-Pro]Thiazole] | 6.8 nM | 15 nM | 14.6% | 519%
3 | CC(C)(C)OC(=O)N[C@@H](Cc1ccccc1)C(=O)N1CCC[C@H]1C(=O)c1nc2ccccc2s1 [Example 9, 2-[Boc-L-Phe-L-Pro]Benzothiazole] | 6 nM | 29 nM | 33.1% | 368%
4 | C[C@H](NC(=O)OCc1ccccc1)C(=O)N1CCC[C@H]1C(=O)c1nccs1 [Example 10, 2-[Cbz-L-Ala-L-Pro]Thiazole] | 2.6 nM | 4.3 nM | 66% | 157%
5 | O=C(N[C@@H](Cc1ccccc1)C(=O)N1CCC[C@H]1C(=O)c1ccc[nH]1)OCc1ccccc1 [Example 11] | 2.9 nM | 7600 nM | 52.1% | 340%

Further lines, with some results ahead:

Row | Ki [1] | IC50 [1] | SMILES | activity at 20 µM (human glial U-343 cells) | activity at 20 µM [2]
6 | 0.057 nM | 6 nM | O=C(N[C@H](Cc1ccccc1)C(=O)N1CCCC1C(=O)c1nc2ccccc2s1)OCc1ccccc1 (stereo partly drawn) [Example 1, 2-[Cbz-L-Phe-L-Pro]Benzothiazole] | 14.3% | 447%
7 | 0.033 nM | 0.12 nM | C[C@@H](NC(=O)OCc1ccccc1)C(=O)N1CCC[C@H]1C(=O)c1nc2ccccc2s1 [Example 2, 2-[Cbz-L-Ala-L-Pro]Benzothiazole] | 20.1% | 123%
8 | 3.2 nM | 5.4 nM | N=C(N)NCCC[C@H](NC(=O)OCc1ccccc1)C(=O)N1CCC[C@H]1C(=O)c1nc2ccccc2s1 [Example 5, 2-[Cbz-L-Arg-L-Pro]Benzothiazole] | 109% | 94%
9 | 12 nM | 17 nM | O=C(O)C[C@H](NC(=O)OCc1ccccc1)C(=O)N1CCC[C@H]1C(=O)c1nc2ccccc2s1 [Example 6, 2-[Cbz-L-Asp-L-Pro]Benzothiazole] | 58% | 96.2%
10 | 8.2 nM | 9.7 nM | C=CCOC(=O)N[C@@H](Cc1ccccc1)C(=O)N1CCC[C@H]1C(=O)c1nc2ccccc2s1 [Example 7, 2-[Aloc-L-Phe-L-Pro]Benzothiazole] | 17% | 528%
11 | 0.038 nM | 2 nM | NCCCC[C@H](NC(=O)OCc1ccccc1)C(=O)N1CCC[C@H]1C(=O)c1nc2ccccc2s1 [Example 8, 2-[Cbz-L-Lys-L-Pro]Benzothiazole] | 160% | 87.5%
